Experimental data: ChEMBL document CHEMBL1649413, “Structure-activity relationship of 4(5)-aryl-2-amino-1H-imidazoles, N1-substituted 2-aminoimidazoles and imidazo[1,2-a]pyrimidinium salts as inhibitors of biofilm formation by Salmonella typhimurium and Pseudomonas aeruginosa” (J Med Chem, 2011)
pIC50: −log10 of the molar value. The source made the active and inactive calls. The calls are words filed in the database; no cut-off is given here.

What was measured:
Pseudomonas aeruginosa [1] = assay: Antibiofilm activity in Pseudomonas aeruginosa assessed as inhibition of biofilm formation at 25 degC after 24 hrs; format: functional, organism-based
Salmonella typhimurium [2] = assay: Antibiofilm activity in Salmonella Typhimurium ATCC 14028 assessed as inhibition of biofilm formation at 25 degC after 24 hrs; format: functional, organism-based, Salmonella enterica subsp. enterica serovar Typhimurium; conditions: Salmonella enterica, ATCC 14028, 24 h
Salmonella typhimurium [3] = assay: Antimicrobial activity against Salmonella Typhimurium ATCC 14028 assessed as inhibition of planktonic growth at 10 uM at 25 degC after 24 hrs; format: functional, organism-based; conditions: Salmonella enterica subsp. enterica serovar Typhimurium
Pseudomonas aeruginosa [4] = assay: Antimicrobial activity against Pseudomonas aeruginosa assessed as inhibition of planktonic growth at 40 uM at 25 degC after 24 hrs; format: functional, organism-based
Pseudomonas aeruginosa [5] = assay: Antimicrobial activity against Pseudomonas aeruginosa assessed as inhibition of planktonic growth at 20 uM at 25 degC after 24 hrs; format: functional, organism-based
Salmonella typhimurium [6] = assay: Antimicrobial activity against Salmonella Typhimurium ATCC 14028 assessed as inhibition of planktonic growth at 40 uM at 25 degC after 24 hrs; format: functional, organism-based; conditions: Salmonella enterica subsp. enterica serovar Typhimurium
Salmonella typhimurium [7] = assay: Antimicrobial activity against Salmonella Typhimurium ATCC 14028 assessed as inhibition of planktonic growth at 4 uM at 25 degC after 24 hrs; format: functional, organism-based; conditions: Salmonella enterica subsp. enterica serovar Typhimurium
Pseudomonas aeruginosa [8] = assay: Antimicrobial activity against Pseudomonas aeruginosa assessed as inhibition of planktonic growth at 10 uM at 25 degC after 24 hrs; format: functional, organism-based
Salmonella typhimurium [9] = assay: Antimicrobial activity against Salmonella Typhimurium ATCC 14028 assessed as inhibition of planktonic growth at 20 uM at 25 degC after 24 hrs; format: functional, organism-based; conditions: Salmonella enterica subsp. enterica serovar Typhimurium
Pseudomonas aeruginosa [10] = assay: Antimicrobial activity against Pseudomonas aeruginosa assessed as inhibition of planktonic growth at 5 uM at 25 degC after 24 hrs; format: functional, organism-based
Salmonella typhimurium [11] = assay: Antimicrobial activity against Salmonella Typhimurium ATCC 14028 assessed as inhibition of planktonic growth at 400 uM at 25 degC after 24 hrs; format: functional, organism-based; conditions: Salmonella enterica subsp. enterica serovar Typhimurium

CCCCCCCCCCCCCn1c(-c2ccccc2)cnc1N was tested, and the pIC50 (Pseudomonas aeruginosa [1]) was 4.56, the pIC50 (Salmonella typhimurium [2]) was 5.22 and the inhibition (Salmonella typhimurium [3]) was “Active”. For the same compound, the inhibition (Pseudomonas aeruginosa [4]) was “inactive”, the inhibition (Pseudomonas aeruginosa [5]) was “inactive” and the inhibition (Salmonella typhimurium [6]) was “Active”. For the same compound, the inhibition (Salmonella typhimurium [7]) was “inactive”.

In the case of CCCCCCCCn1c(-c2cccc3ccccc23)cnc1N, the pIC50 (Pseudomonas aeruginosa [1]) was 4.75, the inhibition (Pseudomonas aeruginosa [8]) was “inactive” and the pIC50 (Salmonella typhimurium [2]) was 5.18. The inhibition (Salmonella typhimurium [3]) was “inactive”, the inhibition (Pseudomonas aeruginosa [5]) was “Active” and the inhibition (Salmonella typhimurium [7]) was “inactive”.

CCCCCCCC[n+]1c(-c2ccc(OC)cc2)cn2cccnc21.[O-][Cl+3]([O-])([O-])[O-] was tested, and the pIC50 (Pseudomonas aeruginosa [1]) was 5.06, the inhibition (Pseudomonas aeruginosa [8]) was “inactive” and the pIC50 (Salmonella typhimurium [2]) was 4.46. The inhibition (Salmonella typhimurium [9]) was “Active”, the inhibition (Pseudomonas aeruginosa [4]) was “inactive” and the inhibition (Pseudomonas aeruginosa [5]) was “inactive”. For the same compound, the inhibition (Salmonella typhimurium [6]) was “Active”.

In the case of CCCCCCCCCCCCn1c(-c2ccc(-c3ccccc3)cc2)cnc1N, the pIC50 (Pseudomonas aeruginosa [1]) was under 3.40, the pIC50 (Salmonella typhimurium [2]) was 3.78 and the inhibition (Pseudomonas aeruginosa [4]) was “inactive”. For the same compound, the inhibition (Pseudomonas aeruginosa [10]) was “inactive”.

For Nc1ncc(-c2ccc(-c3ccccc3)cc2)n1C1CCCCCCC1, the pIC50 (Pseudomonas aeruginosa [1]) was 5.49, the inhibition (Pseudomonas aeruginosa [8]) was “inactive” and the pIC50 (Salmonella typhimurium [2]) was 4.64. The inhibition (Salmonella typhimurium [9]) was “Active”, the inhibition (Pseudomonas aeruginosa [4]) was “inactive” and the inhibition (Pseudomonas aeruginosa [5]) was “inactive”. The inhibition (Pseudomonas aeruginosa [10]) was “inactive”.

With CCCCCCCCCCn1c(-c2ccccc2)cnc1N the pIC50 (Pseudomonas aeruginosa [1]) was 4.82, the inhibition (Pseudomonas aeruginosa [8]) was “inactive” and the pIC50 (Salmonella typhimurium [2]) was 5.21. For the same compound, the inhibition (Salmonella typhimurium [3]) was “Active”, the inhibition (Salmonella typhimurium [9]) was “Active” and the inhibition (Pseudomonas aeruginosa [5]) was “inactive”. The inhibition (Salmonella typhimurium [7]) was “inactive”.

With CCCCCCCC[n+]1c(-c2ccc([N+](=O)[O-])cc2)cn2cccnc21.[O-][Cl+3]([O-])([O-])[O-] the pIC50 (Pseudomonas aeruginosa [1]) was 4.73, the inhibition (Pseudomonas aeruginosa [8]) was “inactive” and the pIC50 (Salmonella typhimurium [2]) was 4.20. The inhibition (Pseudomonas aeruginosa [4]) was “Active” and the inhibition (Pseudomonas aeruginosa [5]) was “inactive”.

With Nc1ncc(-c2ccc(Cl)cc2)n1C1CCCCCC1 the pIC50 (Pseudomonas aeruginosa [1]) was 5.40, the inhibition (Pseudomonas aeruginosa [8]) was “inactive” and the pIC50 (Salmonella typhimurium [2]) was 4.80. The inhibition (Pseudomonas aeruginosa [5]) was “inactive” and the inhibition (Pseudomonas aeruginosa [10]) was “inactive”.

For CC(C)n1c(-c2ccccc2)cnc1N, the pIC50 (Pseudomonas aeruginosa [1]) was 5.35, the inhibition (Pseudomonas aeruginosa [8]) was “inactive” and the pIC50 (Salmonella typhimurium [2]) was 3.76. The inhibition (Pseudomonas aeruginosa [10]) was “inactive”.

In the case of Nc1nc(-c2ccc(F)cc2)c(C(=O)Nc2ccccc2)[nH]1, the pIC50 (Salmonella typhimurium [2]) was 3.74, the inhibition (Salmonella typhimurium [6]) was “inactive” and the inhibition (Salmonella typhimurium [11]) was “Active”. For the same compound, the inhibition (Salmonella typhimurium [7]) was “inactive”.

For CCCCCCCC[n+]1c(-c2ccc(F)cc2)cn2cccnc21.[O-][Cl+3]([O-])([O-])[O-], the pIC50 (Pseudomonas aeruginosa [1]) was 4.71, the pIC50 (Salmonella typhimurium [2]) was 4.45 and the inhibition (Salmonella typhimurium [9]) was “inactive”. For the same compound, the inhibition (Pseudomonas aeruginosa [4]) was “Active”, the inhibition (Pseudomonas aeruginosa [5]) was “inactive” and the inhibition (Salmonella typhimurium [6]) was “inactive”.

For CCCCCCCCCCCn1c(-c2ccccc2)cnc1N, the pIC50 (Pseudomonas aeruginosa [1]) was 4.79, the inhibition (Pseudomonas aeruginosa [8]) was “inactive” and the pIC50 (Salmonella typhimurium [2]) was 5.14. For the same compound, the inhibition (Salmonella typhimurium [3]) was “Active”, the inhibition (Pseudomonas aeruginosa [5]) was “inactive” and the inhibition (Salmonella typhimurium [6]) was “Active”. For the same compound, the inhibition (Salmonella typhimurium [7]) was “inactive”.

CCCCCCCCn1c(-c2ccc(F)cc2)cnc1N was tested, and the pIC50 (Pseudomonas aeruginosa [1]) was 5.31, the inhibition (Pseudomonas aeruginosa [8]) was “Active” and the pIC50 (Salmonella typhimurium [2]) was 4.97. For the same compound, the inhibition (Salmonella typhimurium [3]) was “inactive”, the inhibition (Salmonella typhimurium [9]) was “Active” and the inhibition (Pseudomonas aeruginosa [5]) was “Active”. The inhibition (Pseudomonas aeruginosa [10]) was “inactive”.

In the case of Nc1ncc(-c2ccc(-c3ccccc3)cc2)n1C1CCCCCC1, the pIC50 (Pseudomonas aeruginosa [1]) was 5.18, the pIC50 (Salmonella typhimurium [2]) was 4.90 and the inhibition (Salmonella typhimurium [3]) was “Active”. The inhibition (Salmonella typhimurium [9]) was “Active” and the inhibition (Salmonella typhimurium [6]) was “Active”.

For Nc1ncc(-c2ccc(Cl)cc2)n1C1CCCCCCC1, the pIC50 (Pseudomonas aeruginosa [1]) was 4.31, the pIC50 (Salmonella typhimurium [2]) was 4.89 and the inhibition (Salmonella typhimurium [3]) was “inactive”. The inhibition (Salmonella typhimurium [9]) was “Active” and the inhibition (Salmonella typhimurium [6]) was “Active”.

With CCCCCCCC[n+]1c(-c2ccc(-c3ccc(-c4ccccc4)cc3)cc2)cn2cccnc21.[O-][Cl+3]([O-])([O-])[O-] the pIC50 (Salmonella typhimurium [2]) was 5.30, the inhibition (Salmonella typhimurium [3]) was “Active” and the inhibition (Salmonella typhimurium [7]) was “inactive”.

With CCCCCCn1c(-c2ccc(Cl)cc2)cnc1N the pIC50 (Pseudomonas aeruginosa [1]) was 5.27, the inhibition (Pseudomonas aeruginosa [8]) was “inactive” and the pIC50 (Salmonella typhimurium [2]) was 5.31. The inhibition (Salmonella typhimurium [3]) was “Active”, the inhibition (Pseudomonas aeruginosa [10]) was “inactive” and the inhibition (Salmonella typhimurium [7]) was “Active”.

For Nc1ncc(-c2ccc(Cl)cc2)n1C1CCCCC1, the pIC50 (Pseudomonas aeruginosa [1]) was 4.95, the pIC50 (Salmonella typhimurium [2]) was 4.48 and the inhibition (Pseudomonas aeruginosa [4]) was “inactive”. The inhibition (Pseudomonas aeruginosa [5]) was “inactive” and the inhibition (Pseudomonas aeruginosa [10]) was “inactive”.

CCCCCCCCn1c(-c2ccc(S(C)(=O)=O)cc2)cnc1N was tested, and the pIC50 (Pseudomonas aeruginosa [1]) was 5.31, the pIC50 (Salmonella typhimurium [2]) was 4.54 and the inhibition (Salmonella typhimurium [9]) was “inactive”. For the same compound, the inhibition (Pseudomonas aeruginosa [5]) was “inactive” and the inhibition (Salmonella typhimurium [6]) was “Active”.

In the case of CCCCCCCCn1c(-c2ccc(-c3ccccc3)cc2)cnc1N, the pIC50 (Pseudomonas aeruginosa [1]) was 5.05, the inhibition (Pseudomonas aeruginosa [8]) was “inactive” and the pIC50 (Salmonella typhimurium [2]) was 5.48. For the same compound, the inhibition (Salmonella typhimurium [9]) was “Active”, the inhibition (Pseudomonas aeruginosa [5]) was “inactive” and the inhibition (Salmonella typhimurium [6]) was “Active”. The inhibition (Salmonella typhimurium [7]) was “inactive”.

With CCCCCCCCCCn1c(-c2ccc(Cl)cc2)cnc1N the pIC50 (Pseudomonas aeruginosa [1]) was 4.65, the pIC50 (Salmonella typhimurium [2]) was 5.39 and the inhibition (Salmonella typhimurium [3]) was “Active”. For the same compound, the inhibition (Pseudomonas aeruginosa [4]) was “inactive”, the inhibition (Pseudomonas aeruginosa [5]) was “inactive” and the inhibition (Salmonella typhimurium [7]) was “inactive”.

In the case of CCCCCCCC[n+]1c(-c2ccc(SC)cc2)cn2cccnc21.[O-][Cl+3]([O-])([O-])[O-], the pIC50 (Pseudomonas aeruginosa [1]) was 5.03, the pIC50 (Salmonella typhimurium [2]) was 4.68 and the inhibition (Salmonella typhimurium [9]) was “Active”. The inhibition (Pseudomonas aeruginosa [4]) was “Active”, the inhibition (Pseudomonas aeruginosa [5]) was “inactive” and the inhibition (Salmonella typhimurium [6]) was “Active”.

With CCCCCCCCCCCCn1c(-c2ccc(Cl)cc2)cnc1N the pIC50 (Pseudomonas aeruginosa [1]) was 4.30, the pIC50 (Salmonella typhimurium [2]) was 5.21 and the inhibition (Salmonella typhimurium [3]) was “inactive”. The inhibition (Salmonella typhimurium [9]) was “inactive” and the inhibition (Salmonella typhimurium [7]) was “inactive”.

With CCCCCCCC[n+]1c(-c2ccc(F)c(F)c2)cn2cccnc21.[O-][Cl+3]([O-])([O-])[O-] the pIC50 (Pseudomonas aeruginosa [1]) was 4.90, the inhibition (Pseudomonas aeruginosa [8]) was “Active” and the pIC50 (Salmonella typhimurium [2]) was 5.42. The inhibition (Salmonella typhimurium [3]) was “Active”, the inhibition (Pseudomonas aeruginosa [4]) was “Active” and the inhibition (Pseudomonas aeruginosa [5]) was “Active”. For the same compound, the inhibition (Salmonella typhimurium [7]) was “inactive”.

With CCCCCCCCCCCCCn1c(-c2ccc(-c3ccccc3)cc2)cnc1N the pIC50 (Pseudomonas aeruginosa [1]) was under 3.40, the pIC50 (Salmonella typhimurium [2]) was under 3.10 and the inhibition (Pseudomonas aeruginosa [4]) was “inactive”. For the same compound, the inhibition (Pseudomonas aeruginosa [10]) was “inactive”.

For CCCCCCCCCn1c(-c2ccc(Cl)cc2)cnc1N, the pIC50 (Pseudomonas aeruginosa [1]) was 5.10, the inhibition (Pseudomonas aeruginosa [8]) was “inactive” and the pIC50 (Salmonella typhimurium [2]) was 5.40. The inhibition (Salmonella typhimurium [3]) was “Active”, the inhibition (Salmonella typhimurium [9]) was “Active” and the inhibition (Pseudomonas aeruginosa [5]) was “Active”. The inhibition (Salmonella typhimurium [7]) was “inactive”.

For Nc1nc(-c2ccccc2)c(-c2ccc(C(F)(F)F)cc2)[nH]1, the pIC50 (Salmonella typhimurium [2]) was 4.53, the inhibition (Salmonella typhimurium [6]) was “inactive” and the inhibition (Salmonella typhimurium [11]) was “Active”. The inhibition (Salmonella typhimurium [7]) was “inactive”.

For O=[N+]([O-])c1ccc(-c2cn3cccnc3[n+]2C2CCCCCCCCCCC2)cc1.[O-][Cl+3]([O-])([O-])[O-], the pIC50 (Pseudomonas aeruginosa [1]) was 4.82, the inhibition (Pseudomonas aeruginosa [8]) was “inactive” and the pIC50 (Salmonella typhimurium [2]) was 5.01. For the same compound, the inhibition (Salmonella typhimurium [3]) was “inactive”, the inhibition (Salmonella typhimurium [9]) was “inactive” and the inhibition (Pseudomonas aeruginosa [4]) was “Active”. The inhibition (Pseudomonas aeruginosa [5]) was “Active”.

For CCCCCCCCn1c(-c2ccc(Cl)c(Cl)c2)cnc1N, the pIC50 (Salmonella typhimurium [2]) was 5.43, the inhibition (Salmonella typhimurium [3]) was “Active” and the inhibition (Salmonella typhimurium [7]) was “inactive”.

With CCCCn1c(-c2ccccc2)cnc1N the pIC50 (Pseudomonas aeruginosa [1]) was 5.68, the inhibition (Pseudomonas aeruginosa [8]) was “inactive” and the pIC50 (Salmonella typhimurium [2]) was 4.28. The inhibition (Pseudomonas aeruginosa [10]) was “inactive”.

In the case of CCCCCCCCCCCn1c(-c2ccc(Cl)cc2)cnc1N, the pIC50 (Pseudomonas aeruginosa [1]) was 4.36, the pIC50 (Salmonella typhimurium [2]) was 5.39 and the inhibition (Salmonella typhimurium [3]) was “Active”. The inhibition (Salmonella typhimurium [9]) was “Active” and the inhibition (Salmonella typhimurium [7]) was “inactive”.

For CCCCCCCn1c(-c2ccccc2)cnc1N, the pIC50 (Pseudomonas aeruginosa [1]) was 5.17, the pIC50 (Salmonella typhimurium [2]) was 4.91 and the inhibition (Pseudomonas aeruginosa [4]) was “inactive”. For the same compound, the inhibition (Pseudomonas aeruginosa [5]) was “inactive” and the inhibition (Pseudomonas aeruginosa [10]) was “inactive”.
